Test results as given in patent US20100041089A1, “IMPROVED METHOD FOR DETECTING CHEMICAL […]” (priority 2006, published 2010).

Tested on: yeast genes (expressed mRNA)
Test: DNA chip measurement of expressed mRNA of yeast genes after culture with a toxic chemical substance
Assay type: cell-based, Saccharomyces cerevisiae S288C
Conditions: for level of expressed mRNA in the presence of chemical substance / level in the absence of chemical substance: cultured two hours with the chemical substance; for The level of expressed mRNA in the presence of chemical substance/The level of expressed mRNA in the absence of chemical substance: cultured two hours with substance
How it was run: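 Expression is given as treated/untreated fluorescence ratio on a whole-genome yeast DNA chip, a ratio of two or more being significant. Log-phase S288C cultures in YPD at 25 °C received the chemical for 2 h at a dose that slows growth without killing. mRNA was reverse-transcribed with Cy3- or Cy5-dUTP.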

Na2As [(1)]
The level of expressed mRNA in the presence of chemical substance/The level of expressed mRNA in the absence of chemical substance, yeast gene YBR036C (gene YBR036C, Metabolism protein genes, DNA chip fluorescence ratio): 0.8
The level of expressed mRNA in the presence of chemical substance/The level of expressed mRNA in the absence of chemical substance, yeast gene YBR298C (gene YBR298C, Metabolism protein genes, DNA chip fluorescence ratio): 1.1
The level of expressed mRNA in the presence of chemical substance/The level of expressed mRNA in the absence of chemical substance, yeast gene YDL067C (gene YDL067C (mitochondria-located protein gene), yeast cultured two hours with chemical substance, DNA chip fluorescence ratio to control): 1.8
The level of expressed mRNA in the presence of chemical substance/The level of expressed mRNA in the absence of chemical substance, yeast gene YDL078C (gene YDL078C, Metabolism protein genes, DNA chip fluorescence ratio): 0.7
The level of expressed mRNA in the presence of chemical substance/The level of expressed mRNA in the absence of chemical substance, yeast gene YDL215C (gene YDL215C, Metabolism protein genes, DNA chip fluorescence ratio): 1.0
The level of expressed mRNA in the presence of chemical substance/The level of expressed mRNA in the absence of chemical substance, yeast gene YDR079W (gene YDR079W (mitochondria-located protein gene), yeast cultured two hours with chemical substance, DNA chip fluorescence ratio to control): 1.3
The level of expressed mRNA in the presence of chemical substance/The level of expressed mRNA in the absence of chemical substance, yeast gene YDR297W (gene YDR297W, Metabolism protein genes, DNA chip fluorescence ratio): 1.5
The level of expressed mRNA in the presence of chemical substance/The level of expressed mRNA in the absence of chemical substance, yeast gene YDR387C (gene YDR387C, Metabolism protein genes, DNA chip fluorescence ratio): 0.8
The level of expressed mRNA in the presence of chemical substance/The level of expressed mRNA in the absence of chemical substance, yeast gene YGL035C (gene YGL035C, Metabolism protein genes, DNA chip fluorescence ratio): 0.7
The level of expressed mRNA in the presence of chemical substance/The level of expressed mRNA in the absence of chemical substance, yeast gene YGR062C (gene YGR062C (mitochondria-located protein gene), yeast cultured two hours with chemical substance, DNA chip fluorescence ratio to control): 0.9
The level of expressed mRNA in the presence of chemical substance/The level of expressed mRNA in the absence of chemical substance, yeast gene YGR287C (gene YGR287C, Metabolism protein genes, DNA chip fluorescence ratio): 1.3
The level of expressed mRNA in the presence of chemical substance/The level of expressed mRNA in the absence of chemical substance, yeast gene YJL070C (gene YJL070C, Metabolism protein genes, DNA chip fluorescence ratio): 1.3
The level of expressed mRNA in the presence of chemical substance/The level of expressed mRNA in the absence of chemical substance, yeast gene YJL096W (gene YJL096W (mitochondria-located protein gene), yeast cultured two hours with chemical substance, DNA chip fluorescence ratio to control): 1.0
The level of expressed mRNA in the presence of chemical substance/The level of expressed mRNA in the absence of chemical substance, yeast gene YJL180C (gene YJL180C (mitochondria-located protein gene), yeast cultured two hours with chemical substance, DNA chip fluorescence ratio to control): 0.9
The level of expressed mRNA in the presence of chemical substance/The level of expressed mRNA in the absence of chemical substance, yeast gene YKR009C (gene YKR009C, Metabolism protein genes, DNA chip fluorescence ratio): 1.0
The level of expressed mRNA in the presence of chemical substance/The level of expressed mRNA in the absence of chemical substance, yeast gene YLR295C (gene YLR295C (mitochondria-located protein gene), yeast cultured two hours with chemical substance, DNA chip fluorescence ratio to control): 1.4
The level of expressed mRNA in the presence of chemical substance/The level of expressed mRNA in the absence of chemical substance, yeast gene YLR351C (gene YLR351C, Metabolism protein genes, DNA chip fluorescence ratio): 1.0
The level of expressed mRNA in the presence of chemical substance/The level of expressed mRNA in the absence of chemical substance, yeast gene YLR375W (gene YLR375W, Metabolism protein genes, DNA chip fluorescence ratio): 0.9
The level of expressed mRNA in the presence of chemical substance/The level of expressed mRNA in the absence of chemical substance, yeast gene YMR023C (gene YMR023C (mitochondria-located protein gene), yeast cultured two hours with chemical substance, DNA chip fluorescence ratio to control): 1.4
The level of expressed mRNA in the presence of chemical substance/The level of expressed mRNA in the absence of chemical substance, yeast gene YMR267W (gene YMR267W (mitochondria-located protein gene), yeast cultured two hours with chemical substance, DNA chip fluorescence ratio to control): 0.8
The level of expressed mRNA in the presence of chemical substance/The level of expressed mRNA in the absence of chemical substance, yeast gene YMR267W (gene YMR267W, Metabolism protein genes, DNA chip fluorescence ratio): 0.8
The level of expressed mRNA in the presence of chemical substance/The level of expressed mRNA in the absence of chemical substance, yeast gene YMR278W (gene YMR278W, Metabolism protein genes, DNA chip fluorescence ratio): 0.7
The level of expressed mRNA in the presence of chemical substance/The level of expressed mRNA in the absence of chemical substance, yeast gene YMR293C (gene YMR293C, Metabolism protein genes, DNA chip fluorescence ratio): 0.9
The level of expressed mRNA in the presence of chemical substance/The level of expressed mRNA in the absence of chemical substance, yeast gene YNL073W (gene YNL073W (mitochondria-located protein gene), yeast cultured two hours with chemical substance, DNA chip fluorescence ratio to control): 0.8
The level of expressed mRNA in the presence of chemical substance/The level of expressed mRNA in the absence of chemical substance, yeast gene YNR072W (gene YNR072W, Metabolism protein genes, DNA chip fluorescence ratio): 1.1
The level of expressed mRNA in the presence of chemical substance/The level of expressed mRNA in the absence of chemical substance, yeast gene YOL096C (gene YOL096C, Metabolism protein genes, DNA chip fluorescence ratio): 1.1
The level of expressed mRNA in the presence of chemical substance/The level of expressed mRNA in the absence of chemical substance, yeast gene YOR180C (gene YOR180C, Metabolism protein genes, DNA chip fluorescence ratio): 0.8
The level of expressed mRNA in the presence of chemical substance/The level of expressed mRNA in the absence of chemical substance, yeast gene YOR316C (gene YOR316C (mitochondria-located protein gene), yeast cultured two hours with chemical substance, DNA chip fluorescence ratio to control): 0.7
The level of expressed mRNA in the presence of chemical substance/The level of expressed mRNA in the absence of chemical substance, yeast gene YOR363C (gene YOR363C, Metabolism protein genes, DNA chip fluorescence ratio): 0.8
The level of expressed mRNA in the presence of chemical substance/The level of expressed mRNA in the absence of chemical substance, yeast gene YPL040C (gene YPL040C (mitochondria-located protein gene), yeast cultured two hours with chemical substance, DNA chip fluorescence ratio to control): 1.1
The level of expressed mRNA in the presence of chemical substance/The level of expressed mRNA in the absence of chemical substance, yeast gene YPL134C (gene YPL134C (mitochondria-located protein gene), yeast cultured two hours with chemical substance, DNA chip fluorescence ratio to control): 1.5
The level of expressed mRNA in the presence of chemical substance/The level of expressed mRNA in the absence of chemical substance, yeast gene YPR184W (gene YPR184W, Metabolism protein genes, DNA chip fluorescence ratio): 1.2
level of expressed mRNA in the presence of chemical substance / level in the absence of chemical substance (yeast gene YAL018C): 2.0
The level of expressed mRNA in the presence of chemical substance/The level of expressed mRNA in the absence of chemical substance (yeast gene YAL053W): 0.9
level of expressed mRNA in the presence of chemical substance / level in the absence of chemical substance (yeast gene YAR047C): 1.1
level of expressed mRNA in the presence of chemical substance / level in the absence of chemical substance (yeast gene YAR064W): 2.1
level of expressed mRNA in the presence of chemical substance / level in the absence of chemical substance (yeast gene YBL044W): 0.9
The level of expressed mRNA in the presence of chemical substance/The level of expressed mRNA in the absence of chemical substance (yeast gene YBL048W): 2.0
The level of expressed mRNA in the presence of chemical substance/The level of expressed mRNA in the absence of chemical substance (yeast gene YBL107C): 1.4
level of expressed mRNA in the presence of chemical substance / level in the absence of chemical substance (yeast gene YBR012C): 2.5
level of expressed mRNA in the presence of chemical substance / level in the absence of chemical substance (yeast gene YBR066C): 1.9
level of expressed mRNA in the presence of chemical substance / level in the absence of chemical substance (yeast gene YBR124W): 0.9
level of expressed mRNA in the presence of chemical substance / level in the absence of chemical substance (yeast gene YBR162C): 0.6
level of expressed mRNA in the presence of chemical substance / level in the absence of chemical substance (yeast gene YBR287W): 1.7
level of expressed mRNA in the presence of chemical substance / level in the absence of chemical substance (yeast gene YCL056C): 1.3
level of expressed mRNA in the presence of chemical substance / level in the absence of chemical substance (yeast gene YCR007C): 2.2
level of expressed mRNA in the presence of chemical substance / level in the absence of chemical substance (yeast gene YDL046W): 1.2
The level of expressed mRNA in the presence of chemical substance/The level of expressed mRNA in the absence of chemical substance (yeast gene YDL072C): 1.3
The level of expressed mRNA in the presence of chemical substance/The level of expressed mRNA in the absence of chemical substance (yeast gene YDL204W): 1.4
The level of expressed mRNA in the presence of chemical substance/The level of expressed mRNA in the absence of chemical substance (yeast gene YDL222C): 0.9
level of expressed mRNA in the presence of chemical substance / level in the absence of chemical substance (yeast gene YDR090C): 0.9
level of expressed mRNA in the presence of chemical substance / level in the absence of chemical substance (yeast gene YDR128W): 0.6
